In one test the target is MAP kinase p38 (Homo sapiens, UniProt O15264+Q15759+Q16539+P53778). As to the kind of experiment: Inhibition of p38 MAPK (unknown origin). The format is protein assay.
Test [1] deals with T1, 2',5'-phosphodiesterase 12 (Homo sapiens, UniProt Q6L8Q7).
T1 sequence (Q6L8Q7 whole entry): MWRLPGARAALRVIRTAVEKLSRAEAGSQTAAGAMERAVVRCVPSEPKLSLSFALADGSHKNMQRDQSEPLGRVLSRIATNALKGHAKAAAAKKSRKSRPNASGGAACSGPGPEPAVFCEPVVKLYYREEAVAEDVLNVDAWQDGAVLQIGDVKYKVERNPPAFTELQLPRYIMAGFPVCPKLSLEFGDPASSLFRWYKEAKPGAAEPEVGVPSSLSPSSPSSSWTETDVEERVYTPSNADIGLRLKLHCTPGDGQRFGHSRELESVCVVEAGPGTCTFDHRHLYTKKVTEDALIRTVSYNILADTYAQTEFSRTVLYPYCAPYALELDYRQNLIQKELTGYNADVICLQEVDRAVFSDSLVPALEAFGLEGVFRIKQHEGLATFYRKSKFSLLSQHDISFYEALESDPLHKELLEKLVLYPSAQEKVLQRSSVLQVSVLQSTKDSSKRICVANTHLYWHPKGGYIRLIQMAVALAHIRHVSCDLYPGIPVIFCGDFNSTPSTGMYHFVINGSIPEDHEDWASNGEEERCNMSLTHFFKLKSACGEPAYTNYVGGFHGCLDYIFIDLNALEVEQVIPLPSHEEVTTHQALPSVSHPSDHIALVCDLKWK
As to the kind of experiment: Inhibition of human PDE12 (17 to 609 residues) expresssed in Escherichia coli BL21(DE3) cells using 2-5A as substrate assessed as AMP monomers and ATP formation after 30 mins by AMP-Glo assay.

Another test has as its target Interleukin-2 (Homo sapiens, UniProt P60568). As to the kind of experiment: Binding affinity to human IL-2 measured over 30 mins by fluorescence polarization assay. A general note: Polarisation of emitted light reports the rotation of a fluorescent probe.
Test [2] in a line: Binding affinity to human plasma AGP by isothermal titration calorimetry. The format is ADME.
In another test the target is T2, Protein phosphatase 1D (Homo sapiens, UniProt O15297).
T2 sequence (O15297 whole entry): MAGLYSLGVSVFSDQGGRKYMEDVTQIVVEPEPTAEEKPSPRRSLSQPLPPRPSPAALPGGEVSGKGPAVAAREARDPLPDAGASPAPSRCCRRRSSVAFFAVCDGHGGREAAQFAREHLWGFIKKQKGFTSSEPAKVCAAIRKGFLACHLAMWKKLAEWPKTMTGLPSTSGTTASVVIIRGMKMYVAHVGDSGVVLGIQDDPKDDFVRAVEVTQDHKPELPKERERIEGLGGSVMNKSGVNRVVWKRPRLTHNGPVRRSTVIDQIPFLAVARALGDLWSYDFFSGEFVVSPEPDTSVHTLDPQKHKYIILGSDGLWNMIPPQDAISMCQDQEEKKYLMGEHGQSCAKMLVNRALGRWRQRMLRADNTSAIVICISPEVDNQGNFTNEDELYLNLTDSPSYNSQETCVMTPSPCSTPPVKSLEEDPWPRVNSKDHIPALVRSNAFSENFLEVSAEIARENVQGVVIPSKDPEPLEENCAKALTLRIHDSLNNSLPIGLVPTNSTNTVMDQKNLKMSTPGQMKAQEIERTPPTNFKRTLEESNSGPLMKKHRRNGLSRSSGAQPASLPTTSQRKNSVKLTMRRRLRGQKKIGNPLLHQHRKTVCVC
As to the kind of experiment: Inhibition of human Wip1 (2 to 420 residues) expressed in baculovirus-infected insect SF9 cells assessed as fluorescein diphosphate hydrolysis after 5 mins by fluorescence assay.

In test [3] the target is Proto-oncogene tyrosine-protein kinase Src (Gallus gallus, UniProt P00523). As to the kind of experiment: Inhibition of chicken Src kinase domain using AEEEIYGEFAKKK as substrate by continuous spectrophotometric assay.
Test [4] is described as follows: Displacement of [3H]-3-(1-(3-chloro-6-isopropyl-8-(trifluoromethyl)imidazo[1,2-a]pyridine-2-carbonyl)piperidin-4-yl)oxazolidin-2-one from HCV genotype 1b C-terminal His6-tagged NS4B (1 to 261 residues) expressed in baculovirus infected insect SF9 cells. Also on record: species or system Hepatitis C virus subtype 1b. (In a radioligand displacement assay an active substance lowers the binding of a labelled ligand.)

Test [5] is described as follows: Binding affinity to HSP70 (unknown origin) by surface plasmon resonance method. Also on record: species or system Homo sapiens.

As usually defined, the IC50 is the concentration at which inhibition is half-maximal. For orientation: Kd means the constant that tells how readily two partners part at equilibrium. A high value points to weaker binding.

Molecules are shown by their SMILES.

Interleukin-2, sequence (P60568 whole entry): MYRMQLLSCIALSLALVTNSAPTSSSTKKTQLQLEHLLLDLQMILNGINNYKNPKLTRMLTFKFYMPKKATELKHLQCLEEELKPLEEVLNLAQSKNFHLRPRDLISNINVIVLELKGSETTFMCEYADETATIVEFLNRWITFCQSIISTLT

The compound `CNC(=O)C(Cc1ccc2c(c1)COC(C)(C)O2)Nc1nc(O)nc(-n2ccc3ccc(C(=O)N4CCCc5ccccc54)cc32)n1` (stereo not drawn) yielded an IC50 against MAP kinase p38 of 7 nM. Take `CCn1cc(-c2nc3cc(Br)c(C(=O)N4CCO[C@@H](c5ccc(F)cc5)[C@@H]4CO)cc3n2C)c2ccc(C#N)cc21`: the 50% inhibitory concentration (IC50) in test [1] is 0.8 nM.

`CCCC#Cc1ccc(C[C@@H](NC(=O)CCn2c(C)cc3ccccc32)C(=O)O)cc1` had a Kd at Interleukin-2 of 4200 nM. On to `Cc1ccc(S(=O)(=O)N(CC(=O)NCCOCCC(=O)NCCOCCC(=O)N[C@@H](CCCCNC(=O)/C=C/c2ccc(-c3ccccc3C(F)(F)F)o2)C(=O)O)c2ccccc2-c2ccccc2)cc1`, for which the Kd in test [2] was found to be 5800 nM. In the case of `Cc1ncc(Cl)cc1NCc1ccc(C(=O)N[C@@H](CC2CCCC2)C(=O)NC2CC2)s1`, the IC50 at Protein phosphatase 1D came out at 6 nM.

Turning to `O=C1/C=C\C(=O)N[C@@H](CC2CCCCC2)C(=O)N[C@@H](Cc2ccccc2)C(=O)N[C@@H](CCCNC(=O)c2cnccn2)C(=O)NCC[C@@H](C(=O)O)N1`, the IC50 in test [3] is 4 nM. In test [4], `O=C(c1ccc2[nH]ccc2c1)N1CCC2(CCCN(c3ncc(-c4ccccc4)c(-c4ccc(Cl)cc4)n3)C2)CC1` registered an IC50 of 42 nM.

Turning to `NC(=O)C(CNC(=O)c1ccc2[nH]nc(Br)c2c1)NC(=O)c1cccc(NC(=O)CCC(=O)c2ccc(-c3ccccc3)cc2)c1` (stereo not drawn), the Kd in test [5] came out at 0.64 nM.

Source of the values: ChEMBL document CHEMBL4425089, “Chemical Space of DNA-Encoded Libraries” (J Med Chem, 2016).
